Measured values from patent US20240336567A1, “PESTICIDAL AND HERBICIDAL COMPOUNDS AND METHODS OF USE THEREOF” (AG Plenus Ltd, priority 2021, published 2024).
Where two headings read alike, the source gives them in different places.

Tests used:
[1] = in vitro thermal shift (binding of compound to the target); settings: thermal shift caused by binding of the compound to the (unnamed) target
Arabidopsis thaliana [2] = assay: HTPS (high throughput on soil) - Dicot - Post-emergence; assay type: in vivo; settings: N/A: not active; for Emax: read-out: HTPS - Dicot - Post Max effect; for HTPS - Dicot - Post ED50: from normalized green area
In short: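 Single plants per well in sand, greenhouse-grown; at 2-true-leaf stage 5 μL compound in 50% acetone/0.1% tween-20 applied to leaves, top dose 1.5 Kg/Ha, 2.5-fold dilutions, 8 repeats. Green area imaged (11 and 18 DAA) for % inhibition; ED50/ED75/ED90 fitted from dose-response, t-test versus controls.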

Arabidopsis thaliana [3] = assay: HTPS - Dicot - Pre-emergence; assay type: in vivo; settings: N/A: not active; for Emax: read-out: HTPS - Dicot - Pre Max effect
Description: Arabidopsis thaliana seeds were sown in 96 well plates filled with irrigated Sweet sand (10%>clay) that is washed from salts and minerals using tap water. 5-10 seeds were sown in the center of each well. 7-8 days post sowing, at 2 true leaves stage, thinning out was performed to ensure that compound application is done on a single plant per well. The plates were placed in a controlled greenhouse in a random order inside a bath which allows flooding irrigation with tap water supplemented with a fertilizer. Applied compounds were dissolved into a final solution of 50% acetone, 49.9% DDW, 0.1% tween-20. A 96 well plate was used as a stock plate for preparing application solutions for 8 repeats. Each row contained different concentrations per chemical. Maximal concentration for application was 1.5 Kg/Ha and dilution factor is 2.5. Chemical application was performed one day after thinning out in a chemical hood. 5 μL applied on first two true leaves in each well using 12 channel pipettes. Data collection: RGB (red, green, blue) data for green area per well was documented using camera. Data is collected at a few time points during the experiment: one day after thinning and before chemical application, two-, six- or nine-days post application. During the last two documentations, visual phenotyping was performed. Data analysis: Given RGB results and visual phenotype scores, a student t-test conducted to compare between treatment and control performance for continuous data (RGB) and Fisher exact test to analyze the non-continuous data (phenotypic scores). Dose-Response curves are generated for each treatment to infer ED50 and max. inhibition parameters, using treatment's log concentration range as the […] variable and normalized green area. These experiments are conducted similarly except that either Arabidopsis thaliana or Eragrostis teff seeds were sowed (5-10 or 5-7, respectively), plant thinning out was not performed, compound dissolved into a final solution of 50% acetone, 49.9% DDW, compound application was done at 30 μL volume per well directly on sowed soil before plant emergence and data was collected 10 or 7 days after chemical application on dicot or monocot plants, respectively. Plate imaging performed at 11 and 18 DAA. RGB data for green area per well was documented and used to extract % inhibition. Dose-Response curves were built for each treatment to infer ED50, ED75 and ED90 parameters, using treatment's log concentration range as the independent variable and normalized green area as the dependent variable. Treatments were compared to controls performance given RGB results and using student's t-test (p-val≤0.05).

SETVI = assay: In-planta LTP pre-emergence, visual phenotype; assay type: in vivo, Setaria viridis; settings: Setaria viridis, 432 h, monocot
In short: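 Compounds in water sprayed pre-emergence one day after sowing 10-15 seeds per pot in washed sand, at 2 kg/ha or six rates from 1-0.0312 kg/ha. Greenhouse 26/20° C day/night. Visual phenotype scored 0-6 at 18 DAA; effect called at median ≥3.5 with Fisher test p≤0.05.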

POAAN = assay: In-planta LTP pre-emergence, visual phenotype; assay type: in vivo, Poa annua; settings: monocot; for pest or weed control at 2000 g/ha: Poa annua, 432 h, read-out: IG Inhibited growth (% effect)
Description: (§1) A basic panel of 8 weed species (Table 3) were sowed in 4×4×7 cm plastic pots containing inert sand (Sweet sand), intensively washed using osmosis water. Each specie was sowed in a separate pot. In each pot 10-15 seeds were sowed according to the specie viability. Sowing was performed one day before application. The plants were grown for 21 days in a controlled greenhouse (26±2° C. day 20±2° C. night). Hood irrigation (tap water+Shefer 5:3:8 8 mM) was given at a 50% water content by weight. Compounds were soluble in water (DDW), and commercial herbicide control was soluble in formulation B (Table 4). Application was conducted with an industrial sprayer (TeeJet 6502E nozzle) at a rate of 2 kg/ha and spray volume of […]. Pre-emergence advanced dose response experiment application was conducted at six rates between 1-0.0312 kg/ha and spray volume of […]. Percentage of emergence was evaluated at 15 DAA. Visual phenotyping was recorded using a scale of 0-6 (0: no visible effect, 6: maximum effect) at 18 DAA. All experiments included an untreated control, a solvent control and a positive control (commercial herbicide A.I.). Statistical analysis for visual phenotyping determined by a median value of ≥3.5 and Fisher test (pval≤0.05). Statistical analysis for plant emergence determined by % emergence ≥50 and T test (pval≤0.05), as well as Wilcox test (pval≤0.05).

AMAPA = assay: In-planta LTP pre-emergence, visual phenotype; assay type: in vivo, Amaranthus palmeri; settings: dicot; for pest or weed control at 2000 g/ha: Amaranthus palmeri, 432 h, read-out: IG Inhibited growth (% effect)
Description: as §1

[4] = read-out: DE Disturbed emergence (% effect)
[5] = read-out: IG Inhibited growth (% effect)

Row | Structure (SMILES) | in vitro Thermal Shift [1] [°C] | Emax (Arabidopsis thaliana [2]) [%] | HTPS - Dicot - Post ED50 (Arabidopsis thaliana [2]) [g/ha] | HTPS - Dicot - Pre ED50 (Arabidopsis thaliana [3]) [g/ha] | Emax (Arabidopsis thaliana [3]) [%] | pest or weed control at 2000 g/ha (SETVI; [4]) [%] | pest or weed control at 2000 g/ha (SETVI; [5]) [%] | pest or weed control at 2000 g/ha (POAAN) [%] | DE Disturbed emergence (% effect) (POAAN) | pest or weed control at 2000 g/ha (AMAPA) [%] | DAB Disturbed apical bud (% effect) (AMAPA)
1 | CC(N)COc1cccc(C(=O)O)c1 (stereo not shown) [Compound 106] | 13 | 100 | 102 | 33 | 100 | 100 | 100 | 100 | DE (100) % | 60 | DAB (60), %
2 | C#CCOC(=O)c1cccc(OCC(C)N)c1 (stereo not shown) [Compound 111] | 4 | 100 | 51 | 24 | 100 | 100 | 100 | 100 | DE (100), % | 60 | –
3 | CCCCOC(=O)c1cccc(OCC(C)N)c1 (stereo not shown) [Compound 112] | 4 | 100 | 300 | 20 | 100 | 80 | 100 | 100 | DE (100), % | 60 | –
4 | C[C@@H](N)COc1cccc(C(=O)O)c1 [Compound 154] | 13 | 100 | 16 | – | – | 100 | – | – | DE (100) % | 60 | –
